Reference: US8815944B2, “Pharmaceutical composition with gelling properties containing a tyrosine derivative” (Ethypharm, priority 2008, dated 2014)
Where a name gives a salt, the structure may show the parent alone.

Experiments:
Type in all cases: physicochemical
[1] = Rheological analysis of the gels (gel hardness, complex modulus G*); details: organogelator 5% (w/w) in safflower oil; 25±0.1° C., 0.1 to 10 Hz
Method: (§1) Organogelators at a concentration of 5% (w/w) were solubilized in safflower oil at high temperature (>80° C.) and gels were obtained by cooling the mixture.
Rheological analysis of the gels was performed to determine the gel hardness, by measuring the complex modulus G*. The rheological properties of the organogels were measured by an AR2000 (Advanced Rheometer 2000, TA Instruments, New Castle, Del.), with parallel plate geometry (diameter of 40 mm). Organogels were heated until reaching TGS and they were placed between the parallel plates. The final thickness of the material coat between the plates was 650 to 750 μm. The film was cooled at 4° C. to form the gel. In the linear regime of the gel, the complex modulus G* have been measured as a function of the angular frequency (0.1 to 10 Hz) at 25±0.1° C. G*=(G′^2+G″^2)^0.5 with G′ the storage modulus and G″ the loss modulus.

[2] = Differential scanning calorimetry (DSC) of organogels in safflower oil; details: organogelator 5% (w/w) in safflower oil; for H (enthalpy of the gel-solution transition): area of endothermic peak; for TGS (gel-solution transition temperature): maximum of endothermic peak
Method: as §1
The gels were characterized by differential scanning calorimetry (DSC) to obtain gel-solution transition temperatures (TGS) and enthalpy values of the transition (ΔH). Briefly, thermograms of gels were collected on a 2910 TA Instruments DSC system (New Castle, Del.). The instrument was calibrated with indium. Gels were weighed into aluminum pans that were subsequently sealed. Temperature was scanned between 5 and 90° C. at 10° C./min. The reported gel-sol transition temperatures (TGS) and enthalpies (ΔH) corresponded to the maximum and the area of the endothermic peaks respectively.

[3] = Stability after sterilization by γ-radiation, by 1H-NMR; details: γ-radiation at 25 kGy on dry ice, 60Co source
Method: All formulation components were sterilized individually. B-TyrOCH3 and rivastigmine hydrogen tartrate (Riv) were sterilized on dry ice by γ-radiation at 25 kGy using a ^60Co source (Nordion Inc., Laval, QC, Canada). Stability of the organogelator and drug after sterilization was confirmed by ^1H-NMR. The safflower oil and NMP were filtered on 0.2-μm polytetrafluoroethylene filters. Safflower oil, B-TyrOCH3 (5% w/w) and Rivastigmine were mixed at 85° C. until solubilisation of the organogelator. N-methylpyrrolidone (NMP) (3% w/w) was added at high temperature, mixed and gel formulation syringes (20 G needle) were prepared, under aseptic conditions and put on ice during 15 minutes and at room temperature before injection. A control formulation was prepared without the organogelator in the same condition (oil formulation).

Question: Which results are given for CCCCCCCCCCCCCCCCCCCCCC(=O)N[C@@H](Cc1ccccc1)C(=O)OC [B-Phe-OCH3]?
Answer: G* (complex modulus, gel hardness) [1]: 6 kPa; H (enthalpy of the gel-solution transition) [2]: 14.6 kcal/mol; TGS (gel-solution transition temperature) [2]: 53 °C

Question: What does the source list for CCCCCCCCCCCCCCCCCCCCCC(=O)N[C@@H](Cc1ccc(O)cc1)C(=O)OC [B-Tyr-OCH3, N-Behenoyl L-tyrosine methyl ester]?
Answer: G* (complex modulus, gel hardness) [1]: 37.6 kPa; H (enthalpy of the gel-solution transition) [2]: 17 kcal/mol; TGS (gel-solution transition temperature) [2]: 74 °C

Question: For CCCCCCCCCCCCCCCCCC(=O)NC(C)C(=O)OC (stereo not shown) [S-Ala-OCH3], which “G* (complex modulus, gel hardness)” value [1] is on record?
Answer: Its value is 5 kPa.

Question: What about the “H (enthalpy of the gel-solution transition)” value [2] of the same compound?
Answer: Its value is 13.1 kcal/mol.

Question: What about the “TGS (gel-solution transition temperature)” value (shortened to “TGS”) [2] of the same compound?
Answer: The value was 60 °C.

Question: Which “G* (complex modulus, gel hardness)” value [1] does the source give for CCCCCCCCCCCCCCCCCC(=O)N[C@@H](Cc1ccccc1)C(=O)OC [S-Phe-OCH3, N-stearoyl L-phenylalanine methyl ester] here?
Answer: The value was 6.1 kPa.

Question: And the “H (enthalpy of the gel-solution transition)” value [2]?
Answer: Its value is 9.08 kcal/mol.

Question: What about the “TGS” value [2] of the same compound?
Answer: Its value is 43 °C.

Question: Which “G* (complex modulus, gel hardness)” value [1] does the source give for CCCCCCCCCCCCCCCCCC(=O)N[C@@H](Cc1c[nH]c2ccccc12)C(=O)OC [S-Trp-OCH3, N-stearoyl L-tryptophan methyl ester] here?
Answer: The value was under 0.1 kPa.

Question: What about the “H (enthalpy of the gel-solution transition)” value [2] of the same compound?
Answer: The value was 5.5 kcal/mol.

Question: And the “TGS” value [2]?
Answer: Its value is 56 °C.

Question: With CCCCCCCCCCCCCCCCCC(=O)N[C@@H](Cc1c[nH]c2ccccc12)C(=O)O [S-Trp-OH, N-stearoyl L-tryptophan] as the compound, how does the “G* (complex modulus, gel hardness)” value [1] read?
Answer: Its value is under 0.1 kPa.

Question: And the “H (enthalpy of the gel-solution transition)” value [2]?
Answer: Its value is 3.82 kcal/mol.

Question: What about the “TGS” value [2] of the same compound?
Answer: The value was 122 °C.

Question: What does the source list for CCCCCCCCCCCCCCCCCC(=O)N[C@@H](Cc1ccc(O)cc1)C(=O)OC [S-Tyr-OCH3, N-Stearoyl L-tyrosine methyl ester]?
Answer: G* (complex modulus, gel hardness) [1]: 15.2 kPa; H (enthalpy of the gel-solution transition) [2]: 12 kcal/mol; TGS (gel-solution transition temperature) [2]: 65 °C

Question: Which results are given for CCCCCCCCCCCCCCCCCC(=O)N[C@@H](Cc1ccc(O)cc1)C(=O)O [S-Tyr-OH, N-stearoyl L-tyrosine]?
Answer: G* (complex modulus, gel hardness) [1]: 5 kPa; H (enthalpy of the gel-solution transition) [2]: 4.3 kcal/mol; TGS (gel-solution transition temperature) [2]: 127 °C

Question: With CCN(C)C(=O)Oc1cccc([C@H](C)N(C)C)c1 [rivastigmine hydrogen tartrate] as the compound, how does the Stability after sterilization [3] read?
Answer: The Stability after sterilization was “confirmed”.
